This note sets out measurements from ChEMBL document CHEMBL3045630, “Predictive QSAR modeling on tetrahydropyrimidine-2-one derivatives as HIV-1 protease enzyme inhibitors” (Med Chem Res, 2013).

A word on the Ki: it is a measure of affinity in units of concentration, obtained from inhibition or displacement. Higher therefore signals weaker binding.

Sequence of Protease (Q9YQ12 whole entry): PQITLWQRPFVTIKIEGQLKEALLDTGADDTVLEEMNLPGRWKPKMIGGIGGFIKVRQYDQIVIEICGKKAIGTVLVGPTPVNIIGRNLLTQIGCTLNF

The test addresses Protease (Human immunodeficiency virus 1, UniProt Q9YQ12). The test is described as follows: Inhibition of Human immunodeficiency virus 1 protease.
For the compound `O=C1N(Cc2ccccc2)C(Cc2ccccc2)C(O)C(C(Br)Cc2ccccc2)N1Cc1ccccc1` (centres undefined), the Ki was 186 nM.

For `O=C1NC(CCc2ccccc2)C(O)C(Cc2ccccc2)N1Cc1ccccc1` (centres undefined), the affinity, expressed as Ki, was 66.1 nM.

In turn, `N#Cc1cccc(CN2C(=O)NC(CCc3ccccc3)C(O)C2Cc2ccccc2)c1` (centres undefined) showed a Ki of 15.1 nM.

Regarding `Nc1cccc(CN2C(=O)NC(CCc3ccccc3)C(O)C2Cc2ccccc2)c1` (centres undefined), the Ki was 158 nM.

For `Nc1cccc(CN2C(=O)NC(Cc3ccccc3)C(O)C2CCc2ccccc2)c1` (centres undefined), the affinity, expressed as Ki, was 6.17 nM.

`N#Cc1cccc(CN2C(=O)N(Cc3cccc(C#N)c3)C(Cc3ccccc3)C(O)C2CCc2ccccc2)c1` (centres undefined): affinity was put at a Ki of 11 nM. Against the preceding compound, the Ki is about 1.8-fold higher.

For `CC(=O)c1cccc(CN2C(=O)N(Cc3cccc(C(C)=O)c3)C(Cc3ccccc3)C(O)C2CCc2ccccc2)c1` (centres undefined), the Ki was 0.912 nM. Compared with the last compound, the Ki is about 12-fold lower.

In turn, `NC(=O)c1cccc(CN2C(=O)N(Cc3cccc(C(N)=O)c3)C(Cc3ccccc3)C(O)C2CCc2ccccc2)c1` (centres undefined) had a Ki of 0.0891 nM.

`NC(=O)c1cccc(CN2C(=O)N(Cc3cccc(C(N)=O)c3)C(Cc3ccc(F)cc3)C(O)C2CCc2ccc(F)cc2)c1` (centres undefined): the Ki was 0.309 nM.

The compound `NC(=O)c1cccc(CN2C(=O)N(Cc3cccc(C(N)=O)c3)C(Cc3ccc(F)c(F)c3)C(O)C2CCc2ccc(F)c(F)c2)c1` (centres undefined) showed an inhibitory constant (Ki) of 0.151 nM.

On to `N/C(=N/O)c1cccc(CN2C(=O)N(Cc3cccc(/C(N)=N\O)c3)C(Cc3ccc(F)cc3)C(O)C2CCc2ccc(F)cc2)c1` (centres undefined), for which the Ki was 0.02 nM.

Compound `N/C(=N/O)c1cccc(CN2C(=O)N(Cc3cccc(/C(N)=N\O)c3)C(Cc3ccc(F)c(F)c3)C(O)C2CCc2ccc(F)c(F)c2)c1` (centres undefined) showed a Ki of 0.01 nM.

In the case of `N/C(=N/O)c1cc(CN2C(=O)N(Cc3ccc(F)c(/C(N)=N\O)c3)C(Cc3ccc(F)c(F)c3)C(O)C2CCc2ccccc2)ccc1F` (centres undefined), the Ki was 0.0603 nM.

The compound `Nc1cccc(CN2C(=O)N(Cc3cccc(N)c3)C(Cc3ccccc3)C(O)C2CCc2ccccc2)c1` (centres undefined) showed a Ki of 1.7 nM. This Ki lies about 28-fold higher than the previous one.

`Nc1ccc(CN2C(=O)N(Cc3ccc(N)c(F)c3)C(Cc3ccccc3)C(O)C2CCc2ccccc2)cc1F` (centres undefined) gave a Ki of 7.94 nM. This Ki lies about 4.7-fold higher than the previous one.

Turning to `CNc1cccc(CN2C(=O)N(Cc3cccc(NC)c3)C(Cc3ccccc3)C(O)C2CCc2ccccc2)c1` (centres undefined), the Ki is 22.9 nM.

As to `O=C1N(Cc2cccc(-n3cccn3)c2)C(CCc2ccccc2)C(O)C(Cc2ccccc2)N1Cc1cccc(-n2cccn2)c1` (centres undefined), the affinity, expressed as Ki, was 0.1 nM. Against the preceding compound, the Ki is about 230-fold lower.

The compound `O=C1N(Cc2ccc3[nH]ncc3c2)C(CCc2ccccc2)C(O)C(Cc2ccccc2)N1Cc1ccc2[nH]ncc2c1` (centres undefined) gave a Ki of 0.0603 nM. Against the preceding compound, the Ki is about 1.7-fold lower.

In the case of `Cc1n[nH]c2ccc(CN3C(=O)N(Cc4ccc5[nH]nc(C)c5c4)C(Cc4ccccc4)C(O)C3CCc3ccccc3)cc12` (centres undefined), the Ki was 0.1 nM.

In the case of `Nc1n[nH]c2ccc(CN3C(=O)N(Cc4ccc5[nH]nc(N)c5c4)C(Cc4ccccc4)C(O)C3CCc3ccccc3)cc12` (centres undefined), the Ki was 0.0302 nM.

Turning to `O=C1N(Cc2cccc(O)c2)C(Cc2ccccc2)C(O)C(C(F)Cc2ccccc2)N1Cc1cccc(O)c1` (centres undefined), the Ki is 12 nM.

In turn, `O=C1N(Cc2cccc(CO)c2)C(Cc2ccccc2)C(O)C(C(Br)Cc2ccccc2)N1Cc1cccc(CO)c1` (centres undefined) showed a Ki of 11 nM. This Ki and that of the compound before are within 1.5-fold of each other.

With `N#Cc1cc(CN2C(=O)NC(CCc3ccccc3)C(O)C2Cc2ccccc2)ccc1F` (centres undefined), the affinity, expressed as Ki, was 110 nM.

`NC(=O)c1cccc(CN2C(=O)NC(CCc3ccccc3)C(O)C2Cc2ccccc2)c1` (centres undefined): the Ki was 5.62 nM.

On to `NC(=O)c1cc(CN2C(=O)NC(CCc3ccccc3)C(O)C2Cc2ccccc2)ccc1F` (centres undefined), for which the Ki is 14.1 nM.

For `N/C(=N/O)c1cccc(CN2C(=O)NC(CCc3ccccc3)C(O)C2Cc2ccccc2)c1` (centres undefined), affinity was put at a Ki of 0.24 nM.

Compound `N/C(=N/O)c1cc(CN2C(=O)NC(CCc3ccccc3)C(O)C2Cc2ccccc2)ccc1F` (centres undefined) had a Ki of 1.41 nM.

As to `Cc1n[nH]c2ccc(CN3C(=O)NC(CCc4ccccc4)C(O)C3Cc3ccccc3)cc12` (centres undefined), the affinity corresponds to a Ki of 0.38 nM. Against the preceding compound, the Ki is about 3.7-fold lower.

In turn, `O=C1NC(CCc2ccccc2)C(O)C(Cc2ccccc2)N1Cc1ccc2[nH]ncc2c1` (centres undefined) showed a Ki of 1.2 nM. This Ki lies about 3.2-fold higher than the previous one.

`N#Cc1cc(CN2C(=O)N(Cc3ccccc3)C(Cc3ccccc3)C(O)C2CCc2ccccc2)ccc1F` (centres undefined) gave a Ki of 33.1 nM.

`N#Cc1cc(CN2C(=O)N(Cc3ccccc3)C(CCc3ccccc3)C(O)C2Cc2ccccc2)ccc1F` (centres undefined) showed a Ki of 39.8 nM.

`Nc1n[nH]c2cc(CN3C(=O)N(Cc4ccccc4)C(Cc4ccccc4)C(O)C3CCc3ccccc3)ccc12` (centres undefined) had a Ki of 0.646 nM.

As to `Nc1n[nH]c2ccc(CN3C(=O)N(Cc4ccccc4)C(CCc4ccccc4)C(O)C3Cc3ccccc3)cc12` (centres undefined), the Ki is 0.282 nM.

Consider `Cc1n[nH]c2cc(CN3C(=O)N(Cc4cccc(N)c4)C(Cc4ccccc4)C(O)C3CCc3ccccc3)ccc12` (centres undefined), for which affinity was put at a Ki of 0.129 nM.

On to `N#Cc1cccc(CN2C(=O)N(Cc3cccc(N)c3)C(Cc3ccccc3)C(O)C2CCc2ccccc2)c1` (centres undefined), for which the affinity corresponds to a Ki of 1.58 nM.

For the compound `Nc1cccc(CN2C(=O)N(Cc3ccc4c(N)n[nH]c4c3)C(CCc3ccccc3)C(O)C2Cc2ccccc2)c1` (centres undefined), the Ki is 0.1 nM.

`N#Cc1cccc(CN2C(=O)N(Cc3cccc(C#N)c3)C(Cc3cccc(F)c3)C(O)C2CCc2ccc(F)cc2)c1` (centres undefined) had a Ki of 14.1 nM.

Regarding `Nc1cc(CN2C(=O)N(Cc3ccc(F)c(N)c3)C(Cc3ccccc3)C(O)C2CCc2ccccc2)ccc1F` (centres undefined), the affinity, expressed as Ki, was 0.251 nM.

Regarding `Cc1ccc(C(=O)Nc2cccc(CN3C(=O)N(Cc4cccc(NC(=O)c5ccc(C)cn5)c4)C(Cc4ccccc4)C(O)C3CCc3ccccc3)c2)nc1` (centres undefined), the Ki was 0.0794 nM.

`CN1C=CSC1C(=O)Nc1cccc(CN2C(=O)N(Cc3cccc(NC(=O)C4SC=CN4C)c3)C(Cc3ccccc3)C(O)C2CCc2ccccc2)c1` (centres undefined) gave a Ki of 0.0302 nM.

With `O=C1NC(Cc2ccccc2)C(O)C(CCc2ccccc2)N1Cc1ccc2cn[nH]c2c1` (centres undefined), affinity was put at a Ki of 43.7 nM.

The compound `Nc1cccc(CN2C(=O)N(Cc3ccc4cn[nH]c4c3)C(Cc3ccccc3)C(O)C2CCc2ccccc2)c1` (centres undefined) had a Ki of 0.0794 nM. This Ki is about 550-fold lower than that of the compound before.

On to `NC(=O)c1cccc(CN2C(=O)N(Cc3cccc(N)c3)C(Cc3ccccc3)C(O)C2CCc2ccccc2)c1` (centres undefined), for which the Ki is 0.0603 nM.

`O=C1N(Cc2ccccc2)C(CCc2ccccc2)C(O)C(Cc2ccccc2)N1Cc1ccccc1` (centres undefined) had a Ki of 15.1 nM.
